Data taken from patent publication US20260263550A1, “METHODS AND COMPOSITIONS FOR TREATING, PREVENTING, INHIBITING, AMELIORATING OR DELAYING THE ONSET OF OPHTHALMIC CONDITIONS” (Stealth BioTherapeutics Inc., priority 2021, published 2026).

Assay: in vivo
Conditions: cynomolgus monkey, sc; for concentration at 29 study day: Average Conc.
Method: Male and female cynomolgus monkeys were divided into four groups (Groups 1 to 4). Groups 1 and 4 consisted of five males and five females each and Groups 2 and 3 consisted of three males and three females each. Animals were dosed via SC injection once daily for 28 consecutive days. Group 1 animals received the control article, 0.9% sodium chloride injection, USP (saline). Group 2, 3, and 4 animals received the test article, compound of Formula IIa, at dose levels of 2, 5, and 15 mg/kg/day, respectively. Three males and three females from Groups 1 to 3, and three males and one female from Group 4 were necropsied on Day 29 (terminal necropsy). Two males and two females from Groups 1 and 4 were necropsied on Day 42 (recovery necropsy), after a 13-day treatment-free period. […] Safety endpoints included daily clinical and weekly detailed observations, food evaluation, dermal scoring of the injection site, body weight, ophthalmology, electrocardiography (ECG), hematology, coagulation, serum chemistry, and urinalysis. Blood was collected at multiple time points. At termination, gross observations and organ weights were recorded, and eye/optic nerve tissue samples were collected for microscopic evaluation and biodistribution assays.
Preparation of dose formulations. Dose formulation preparations were performed once weekly in a biosafety cabinet using clean techniques. The test article dosing formulations were prepared by diluting the 100 mg/mL (nominal concentration) compound of Formula IIa stock solution in the appropriate volume of 0.9% Sodium Chloride Injection, USP. All formulations (including Group 1, control) were filtered using a 0.22 μm polyethersulfone (PES) syringe filter. Osmolarity and pH were measured and recorded, then the dosing formulations were aliquoted into a sufficient number of sterile glass vials for daily use over one week. All aliquots were stored in a refrigerator set to maintain 4° C. and used within 7 days after preparation.
Test system. The test system was cynomolgus monkey, originating from Cambodia, supplied by Worldwide Primates. The animals were identified by unique skin tattoos. The body weight of the animals ranged from 1.6. to 2.4 kg at initiation of dosing and the ages ranged from 2.0 to 3.1 years at the initiation of dosing. For acclimation, there were 18 males and 18 females. For dosing, 16 males and 16 females were used.
Administration of dose formulations. The dose formulations were administered to appropriate animals by subcutaneous injection into the interscapular area once daily for 28 days using disposable syringe and needle. Four subcutaneous dose sites (upper left/right and lower left/right) were designated on the dorsal back using permanent marker or tattoo placed during acclimation avoiding the spine, with no edges overlapping and with a maximum practical distance between the dose sites. The designated dosing sites were shaved, and injection was rotated among them. If a designated site was not suitable for administration (e.g., due to wound, scab/crust, etc.), the next suitable site was used for dosing and appropriately documented.
Necropsy. Animals were fasted overnight prior to termination. Following blood collection on the day of necropsy, animals were sedated, weighed, and euthanized by an overdose of euthanasia solution, followed by whole body perfusion flush with phosphate buffered saline. Animals were subjected to a complete macroscopic examination and tissue collection. Bone marrow smears were prepared from the sternum at scheduled necropsy. Two females were necropsied early on Days 25 and 27. Blood samples (hematology, coagulation, and serum chemistry) were collected prior to euthanasia, after which a complete macroscopic examination was performed.
Tissue collection and preservation. Left eyes and optic nerves were fixed in a solution of 2.5% NBF and 3% Glutaraldehyde, and right eyes and optic nerves were frozen for biodistribution.
Biodistribution analysis—right eye and optic nerve. […]

[1] = male, 15 mg/kg/day, Average Concentration, Aqueous Humor
[2] = male, 15 mg/kg/day, Average Concentration, Choroid
[3] = male, 15 mg/kg/day, Average Concentration, Conjunctiva
[4] = male, 15 mg/kg/day, Average Concentration, Cornea
[5] = male, 15 mg/kg/day, Average Concentration, ICB (iris/ciliary body)
[6] = male, 15 mg/kg/day, Average Concentration, Optic Nerve
[7] = male, 15 mg/kg/day, Average Concentration, Retina
[8] = male, 15 mg/kg/day, Average Concentration, Sclera
[9] = male, 15 mg/kg/day, Average Concentration, Vitreous Humor

For `Cc1cc(O)cc(C)c1C[C@H](NC(=O)[C@H](N)CCCNC(=N)N)C(=O)N[C@@H](CCCCN)c1nc(Cc2ccccc2)no1.Cl.Cl.Cl` [Formula IIa, (R)-2-amino-N—((S)-1-(((S)-5-amino-1-(3-benzyl-1,2,4-oxadiazol-5-yl)pentyl)amino)-3-(4-hydroxy-2,6-dimethylphenyl)-1-oxopropan-2-yl)-5-guanidinopentanamide], the “Average Concentration” value (2 mg/kg) was “<LLOQ”, the Conc. (2 mg/kg) was “<LLOQ” and the Concentration (2 mg/kg) was “<LLOQ”. The “Average Concentration” value (5 mg/kg) was “<LLOQ”, the Conc. (5 mg/kg) was “<LLOQ” and the Concentration (5 mg/kg) was “<LLOQ”. The “Average Concentration” value (15 mg/kg) was “<LLOQ”, the Conc. (15 mg/kg) was “<LLOQ” and the Concentration (15 mg/kg) was “<LLOQ”. It also gave a concentration at 29 study day (female, 2 mg/kg) of 17500 ng/g, a concentration at 29 day (female, 2 mg/kg/day, Average Concentration, Aqueous Humor) of 2.76 ng/mL and a concentration at 29 day (female, 2 mg/kg/day, Average Concentration, Choroid) of 2500 ng/g. The concentration at 29 day (female, 2 mg/kg/day, Average Concentration, Conjunctiva) was 835 ng/g, the concentration at 29 day (female, 2 mg/kg/day, Average Concentration, Cornea) was 27.2 ng/g and the concentration at 29 day (female, 2 mg/kg/day, Average Concentration, ICB (iris/ciliary body)) was 375 ng/g. It also gave a concentration at 29 day (female, 2 mg/kg/day, Average Concentration, Optic Nerve) of 17500 ng/g, a concentration at 29 day (female, 2 mg/kg/day, Average Concentration, Retina) of 7390 ng/g and a concentration at 29 day (female, 2 mg/kg/day, Average Concentration, Sclera) of 446 ng/g. For the same compound, the concentration at 29 day (female, 2 mg/kg/day, Average Concentration, Vitreous Humor) was 13.1 ng/mL, the concentration at 29 day (female, 2 mg/kg/day, Concentration (ng/g), Cornea (individual animals)) was 53.4 ng/g and the concentration at 29 day (female, 2 mg/kg/day, Concentration (ng/mL), Cornea (individual animals)) was 2.67 ng/mL. For the same compound, the concentration at 29 study day (female, 5 mg/kg) was 31800 ng/g, the concentration at 29 day (female, 5 mg/kg/day, Average Concentration, Aqueous Humor) was 25.9 ng/mL and the concentration at 29 day (female, 5 mg/kg/day, Average Concentration, Choroid) was 3210 ng/g. It also gave a concentration at 29 day (female, 5 mg/kg/day, Average Concentration, Conjunctiva) of 1770 ng/g, a concentration at 29 day (female, 5 mg/kg/day, Average Concentration, Cornea) of 56.1 ng/g and a concentration at 29 day (female, 5 mg/kg/day, Average Concentration, ICB (iris/ciliary body)) of 800 ng/g. The concentration at 29 day (female, 5 mg/kg/day, Average Concentration, Optic Nerve) was 31800 ng/g, the concentration at 29 day (female, 5 mg/kg/day, Average Concentration, Retina) was 20100 ng/g and the concentration at 29 day (female, 5 mg/kg/day, Average Concentration, Sclera) was 837 ng/g. It also gave a concentration at 29 day (female, 5 mg/kg/day, Average Concentration, Vitreous Humor) of 23.3 ng/mL, a concentration at 42 day (female, 15 mg/kg/day, Average Concentration, Aqueous Humor) of 9.83 ng/mL and a concentration at 42 day (female, 15 mg/kg/day, Average Concentration, Choroid) of 27600 ng/g. It also gave a concentration at 42 day (female, 15 mg/kg/day, Average Concentration, Conjunctiva) of 4540 ng/g, a concentration at 42 day (female, 15 mg/kg/day, Average Concentration, Cornea) of 149 ng/g and a concentration at 42 day (female, 15 mg/kg/day, Average Concentration, ICB (iris/ciliary body)) of 3160 ng/g. It also gave a concentration at 42 day (female, 15 mg/kg/day, Average Concentration, Optic Nerve) of 40800 ng/g, a concentration at 42 day (female, 15 mg/kg/day, Average Concentration, Retina) of 67000 ng/g and a concentration at 42 day (female, 15 mg/kg/day, Average Concentration, Sclera) of 4700 ng/g. For the same compound, the concentration at 42 day (female, 15 mg/kg/day, Average Concentration, Vitreous Humor) was 62.7 ng/mL, the concentration at 42 day (female, 15 mg/kg/day, Concentration (ng/g), Sclera (individual animals)) was 5140 ng/g and the concentration at 29 study day (male, 2 mg/kg) was 22000 ng/g. The “Concentration, Aqueous Humor (individual animals)” value (male, 2 mg/kg/day, 29 day) was 2.94 ng/mL, the concentration at 29 day (male, 2 mg/kg/day, Average Concentration, Aqueous Humor) was 2.31 ng/mL and the concentration at 29 day (male, 2 mg/kg/day, Average Concentration, Choroid) was 1890 ng/g. It also gave a concentration at 29 day (male, 2 mg/kg/day, Average Concentration, Conjunctiva) of 603 ng/g, a concentration at 29 day (male, 2 mg/kg/day, Average Concentration, Cornea) of 39.3 ng/g and a concentration at 29 day (male, 2 mg/kg/day, Average Concentration, ICB (iris/ciliary body)) of 354 ng/g. It also gave a concentration at 29 day (male, 2 mg/kg/day, Average Concentration, Optic Nerve) of 22000 ng/g, a concentration at 29 day (male, 2 mg/kg/day, Average Concentration, Retina) of 2770 ng/g and a concentration at 29 day (male, 2 mg/kg/day, Average Concentration, Sclera) of 701 ng/g. It also gave a concentration at 29 day (male, 2 mg/kg/day, Average Concentration, Vitreous Humor) of 11.2 ng/mL, a concentration at 29 day (male, 2 mg/kg/day, Concentration, Aqueous Humor (individual animals)) of 4 ng/mL and a concentration at 29 study day (male, 5 mg/kg) of 26300 ng/g. It also gave a concentration at 29 day (male, 5 mg/kg/day, Average Concentration, Aqueous Humor) of 5.29 ng/mL, a concentration at 29 day (male, 5 mg/kg/day, Average Concentration, Choroid) of 4060 ng/g and a concentration at 29 day (male, 5 mg/kg/day, Average Concentration, Conjunctiva) of 3560 ng/g. It also gave a concentration at 29 day (male, 5 mg/kg/day, Average Concentration, Cornea) of 64 ng/g, a concentration at 29 day (male, 5 mg/kg/day, Average Concentration, ICB (iris/ciliary body)) of 1230 ng/g and a concentration at 29 day (male, 5 mg/kg/day, Average Concentration, Optic Nerve) of 26300 ng/g. The concentration at 29 day (male, 5 mg/kg/day, Average Concentration, Retina) was 5760 ng/g, the concentration at 29 day (male, 5 mg/kg/day, Average Concentration, Sclera) was 1820 ng/g and the concentration at 29 day (male, 5 mg/kg/day, Average Concentration, Vitreous Humor) was 13.3 ng/mL. For the same compound, the concentration at 29 day [1] was 14.5 ng/mL, the concentration at 42 day [1] was 3.82 ng/mL and the concentration at 29 day [2] was 8790 ng/g. For the same compound, the concentration at 42 day [2] was 7880 ng/g, the concentration at 29 day [3] was 5430 ng/g and the concentration at 42 day [3] was 4380 ng/g. For the same compound, the concentration at 29 day [4] was 195 ng/g, the concentration at 42 day [4] was 34.8 ng/g and the concentration at 29 day [5] was 3910 ng/g. For the same compound, the concentration at 42 day [5] was 1410 ng/g, the concentration at 29 day [6] was 60000 ng/g and the concentration at 42 day [6] was 91500 ng/g. The concentration at 29 day [7] was 26100 ng/g, the concentration at 42 day [7] was 30200 ng/g and the concentration at 29 day [8] was 2260 ng/g. It also gave a concentration at 42 day [8] of 3870 ng/g, a concentration at 29 day [9] of 48.8 ng/mL and a concentration at 42 day [9] of 45.3 ng/mL. The concentration at 42 day (male, 15 mg/kg/day, Concentration (ng/g), Cornea (individual animals)) was 34.6 ng/g and the concentration at 42 day (male, 15 mg/kg/day, Concentration (ng/mL), Cornea (individual animals)) was 1.73 ng/mL.
